pEC50: −log10 of the molar value. Entries after “also recorded” stand apart in the source; their conditions may differ. Like-named read-outs stand apart in the source and are kept apart here.
Experiments:
[1] = test system: Varicella-zoster virus (VZV) TK+(Oka strain); type: cell-based; conditions: for activity against TK+ VZV strain (in words): HEL cells; for activity against varicella‐zoster virus (in words): strain not given
[2] = test system: Varicella-zoster virus (VZV) TK-(Oka strain); type: cell-based; conditions: HEL cells
[3] = test system: Punta Toro virus; assay: microbe, parasite or virus in culture; type: cell-based
[4] = test system: Parainfluenza‐3 virus; assay: organism not typed; type: cell-based
[5] = test system: Sindbis virus; assay: microbe, parasite or virus in culture; type: cell-based
[6] = test system: Vero cells; conditions: Vero cell cultures
[7] = test system: HeLa cells; conditions: HeLa cell cultures
[8] = test system: Reovirus‐1; assay: organism not typed; type: cell-based
[9] = test system: Coxsackie virus B4; type: cell-based; conditions: for pEC50: read-out: EC50 Coxsackie virus B4, reduce virus-induced cytopathogenicity by 50%
[10] = test system: Coxsackie virus B4; type: cell-based; conditions: Vero cell cultures
[11] = test system: Vesicular stomatitis virus; type: cell-based; conditions: for pEC50: read-out: EC50 Vesicular stomatitis virus
[12] = test system: Respiratory syncytial virus; type: cell-based; conditions: for inhibitory activity against respiratory syncytial virus (in words): HeLa cells
[13] = microscopically detectable alteration of normal cell morphology
[14] = HeLa cell cultures, unit of the DS-10.000 line
[15] = Vero cell cultures, unit of the DS-10.000 line

Diethyl [(4‐(1‐(β‐D‐ribofuranos‐1‐yl)‐1,2,3‐triazol‐4‐yl)phenyl)(2‐bromophenylamino)methyl]phosphonate [Compound 5c]
activity against TK+ VZV strain (in words) [1]: weak activity | activity against varicella‐zoster virus (in words) [1]: modest activity | activity against TK− VZV strain (in words) [2]: weak activity

Diethyl [(4‐(1‐(β‐D‐ribofuranos‐1‐yl)‐1,2,3‐triazol‐4‐yl)phenyl)(4‐chloro‐2‐methylphenylamino)methyl]phosphonate [Compound 5f]
activity against TK+ VZV strain (in words) [1]: weak activity | activity against varicella‐zoster virus (in words) [1]: modest activity | activity against TK− VZV strain (in words) [2]: weak activity

NC(=O)c1ncn([C@@H]2O[C@H](CO)[C@@H](O)[C@H]2O)n1 [Ribavirin, ribavirin]
pEC50 ([3]; Punta Toro virus, Vero, read-out: EC50 Punta Toro virus): 3.95 | pEC50 ([4]; Vero, read-out: EC50 Parainfluenza‐3 virus): 4.07 | pEC50 ([5]; Sindbis virus, Vero, read-out: EC50 Sindbis virus): < 3.60 | Minimum cytotoxic concentration [6, 13]: >250 µM | Minimum cytotoxic concentration [7, 13]: >250 µM | pEC50 ([8]; Vero, read-out: EC50 Reovirus‐1): < 3.60

Diethyl [(4‐(1‐(2,3,5‐tri‐O‐benzoyl‐β‐D‐ribofuranos‐1‐yl)‐1,2,3‐triazol‐4‐yl)phenyl)(benzylamino)methyl]phosphonate [Compound 4h]
activity against Coxsackie virus B4 (in words) ([9]; HeLa cells): no activity | activity against Coxsackie virus B4 (in words) [10]: some activity; also recorded: modest inhibitory activity | pEC50 ([10]; read-out: EC50 Coxsackie virus B4, reduce virus-induced cytopathogenicity by 50%): 4.70 | Minimum cytotoxic concentration [6, 13]: >100 µM

Diethyl [(4‐(1‐(2,3,5‐tri‐O‐benzoyl‐β‐D‐ribofuranos‐1‐yl)‐1,2,3‐triazol‐4‐yl)phenyl)(4‐bromophenylamino)methyl]phosphonate [Compound 4d]
pEC50 ([9]; HeLa cell cultures): < 4.00 | pEC50 [11]: < 4.00 | Minimum cytotoxic concentration [7, 13]: >100 µM

Diethyl [(4‐(1‐(β‐D‐ribofuranos‐1‐yl)‐1,2,3‐triazol‐4‐yl)phenyl)(2‐naphthalenylamino)methyl]phosphonate [Compound 5g]
activity against TK+ VZV strain (in words) [1]: weak activity | activity against varicella‐zoster virus (in words) [1]: modest activity | activity against TK− VZV strain (in words) [2]: weak activity

Diethyl [(4‐(1‐(2,3,5‐tri‐O‐benzoyl‐β‐D‐ribofuranos‐1‐yl)‐1,2,3‐triazol‐4‐yl)phenyl)(2‐chlorophenylamino)methyl]phosphonate [Compound 4b]
pEC50 ([9]; HeLa cell cultures): < 4.00 | inhibitory activity against respiratory syncytial virus (in words) [12]: slight inhibition; also recorded: modest inhibitory activity | pEC50 [11]: < 4.00 | Minimum cytotoxic concentration [7, 13]: >100 µM

Diethyl [(4‐(1‐(2,3,5‐tri‐O‐benzoyl‐β‐D‐ribofuranos‐1‐yl)‐1,2,3‐triazol‐4‐yl)phenyl)(2‐bromophenylamino)methyl]phosphonate [Compound 4c]
pEC50 ([9]; HeLa cell cultures): < 4.00 | inhibitory activity against respiratory syncytial virus (in words) [12]: slight inhibition; also recorded: modest inhibitory activity | pEC50 [11]: < 4.00 | Minimum cytotoxic concentration [7, 13]: >100 µM

dextran sulfate [DS‐10.000, reference compound]
EC50 Coxsackie virus B4 [9, 14]: >100 µg/mL | EC50 Coxsackie virus B4 ([10]; unit of the DS-10.000 line): >100 µg/mL | EC50 Punta Toro virus [3, 15]: 8.9 µg/mL | EC50 Parainfluenza‐3 virus [4, 15]: >100 µg/mL | EC50 Respiratory syncytial virus [12, 14]: 1.3 ± 0.7 µg/mL | EC50 Sindbis virus [5, 15]: 8.9 µg/mL | EC50 Vesicular stomatitis virus [11]: 12 µg/mL | Minimum cytotoxic concentration ([6]; unit of the DS-10.000 line): >100 µg/mL | Minimum cytotoxic concentration ([7]; unit of the DS-10.000 line): >100 µg/mL | EC50 Reovirus‐1 [8, 15]: >100 µg/mL

— article PMC4832832 (Archiv Der Pharmazie, 2015)
